Patent publication US20030216361A1, “Therapeutic compositions effective against gram positive bacteria” (priority 2000, published 2003)
Several values for one entry are separate records, joined by “and”; a condition that tells them apart may be missing. Identical values can stand only once.

Tested on: ATCC 14154, mouse virulent Staphylococcus aureus
Experiment: Mouse model of topical Gram positive (Staphylococcus aureus) infection, infected suture
Assay type: in vivo
Details: Group 5 enrofloxacin (Baytril) 10 mg/kg SQ SID×7 days, mice
Description: The model, as described in J. Gisby and J. Bryant, Antimicrobial Agents and Chemotherapy, February 2000, Vol. 44, No. 2, p 255-260, was used.
Fifty HSD:ICR male mice weighing 12-14 grams were ordered and allowed to acclimate 7 days. Mice were allocated to 5 groups of 10 animals each.
Group 1: infected suture placed, no treatment
Group 2: topical GRPB, 12.5 mg/kg BID×7 days
Group 3: topical GRPB, 25 mg/kg BID×7 days
Group 4: clean suture, no treatment
Group 5: enrofloxacin (Baytril) 10 mg/kg SQ SID×7 days
ATCC 14154, mouse virulent Staphylococcus aureus was grown in BHI broth overnight (12 hours) at 38 degrees C. Forty-five minutes prior to surgery, silk suture (2-0 size, 1 cm lengths w/swaged-on blunt needle) was soaked in the broth for 30 minutes, excess liquid was then removed by blotting with filter paper.
Mice were anesthetized with a ketamine (40 mg/kg), midazolam (2 mg/kg), and butorphanol (0.1 mg/kg) as a single IP injection.
The skin on the back of the mouse was prepared for aseptic surgery by clipping, cleansing with iodine scrub, and rinsing with alcohol. Mice were kept warm during surgery on a recirculating hot water blanket.
The suture was placed just under the skin on the dorsum of the animal using sterile instruments. The suture was knotted in the subcutaneous tissue to keep it in place. A half-thickness skin wound was made over the suture using the side of an 18 gauge needle as a scalpel.
Mice were allowed to recover in the home cage.
GRPB-10-15A was reconstituted as directed, using a minimal amount of methanol followed by dilution to required volume in sterile physiologic saline.
Injections were given using insulin syringes with 30 gauge needles. Topical administration was placed over the wound site. The mice were first treated 4 hours after surgery and were treated once or twice daily thereafter.
After 7 days of treatment animals were euthanized with IP pentobarbital euthanasia solution. The suture lengths were removed and placed in 2 mls phosphate buffered saline. Serial dilutions were performed and results reported as actual counts (number of Staph colonies per suture).

With CCN1CCN(c2cc3c(cc2F)c(=O)c(C(=O)O)cn3C2CC2)CC1 [Baytril, enrofloxacin, reference compound] the “Total colonies (number of Staph colonies per suture), individual animals” value (animals 1-10, 10 mg/kg) was 18 colonies per suture and 30 colonies per suture and 24 colonies per suture and 100 colonies per suture and 0 colonies per suture (2×) and 74 colonies per suture and 13 colonies per suture and 740 colonies per suture and 22 colonies per suture and the “Total colonies (number of Staph colonies per suture), Ave.” value (average of 10 animals) was 102 colonies per suture.
